We go through one compound from patent publication US20040191842A1, “Chemopreventive and therapeutic aspects of polyphenolic compositions and assays” (Medical College of Georgia Research Institute, Inc., priority 2002, published 2004).

“Also recorded” adds a separate entry of the source.

For one assay, the system named is NHEK. Briefly: Intracellular ROS levels (DFDA assay), NHEK. The class given is cell-based, human. As to conditions: EGCG 15-200 μM, up to 120 minutes. Here is the method: Measurement of intracellular ROS levels. The ROS assay measures the accumulation of intracellular ROS levels. The non-fluorescent dye DFDA passively diffuses into cells, where the acetates are cleaved by intracellular esterases. […] Thus, values of the fluorescence in the cell cultures are constantly rising in this assay. […] The intracellular ROS levels were measured by using a fluorescence plate reader (BIO-TEK FL600, Bio-Tek Instruments, Inc., Winooski, Vt.), at an excitation wavelength of 485 nm and an emission wavelength of 530 nm.

In another assay the test system is caspase 3. The experiment in a line: Caspase 3 activity assay, mammary epithelial cells. The assay is classed as cell-based, human. As to conditions: 100 μM EGCG, 24 hours. Here is the method: Caspase 3 activity assay. The Caspase 3 Apoptosis Detection Kit was purchased from Santa Cruz Biotech. Inc. In a 24 well tissue culture plate, 10^5 cells/well of control or treated cells in triplicates were plated. […] To each well, 100 μl of 2×reaction buffer was added with 10 mM DTT. Finally, 5 μl of DEVD-AFC substrate was added to each well containing cell lysates. The reaction mixtures were incubated for 1 hour at 37° C. The caspase 3 activity in each well was measured using a fluorescence plate reader set for 405 nanometer (nm) excitation and 505 nm emission.

For assay [1], the system named is aged normal human primary epidermal keratinocytes. The experiment in a line: BrdU incorporation assay, aged keratinocytes. The assay is classed as cell-based. As to conditions: EGCG 15-50 μM, 15-day and 20-day keratinocytes. Here is the method:
Culturing normal human epithelial cells. The pooled normal human primary epidermal keratinocytes were purchased from Cambrex (Baltimore, Md.) and sub-cultured in the specific growth media provided by the manufacturer (KGM-2). […] Exponentially growing keratinocytes were treated and harvested in their early passages (2-3 passages). […] Analysis of DNA synthesis using the BrdU incorporation method. The BrdU cell proliferation kit was purchased from Oncogene Research Products (Boston, Mass.). […] Experiments were repeated three times in triplicate for each experiment.

The test system of another assay is p57 (KIP2). The assay is classed as cell-based, human. How it is done:
Cell treatments. For 24 hours treatments, exponentially growing cells with 40% confluency (to minimize differentiation and spontaneous apoptosis) were either maintained in 50 μM EGCG (2.29 mg/100 ml) or 0.2 mg/ml of GTPPs in tissue culture flasks (25 cm^2). Control flasks contained cells without any treatment. To test whether BaP or NNK interfere with the induction of p57, the human keratinocytes were treated with 0.12 μM BaP, or 10 μM NNK, either alone or in combination with 50 μM EGCG. To examine the time course of p57 induction, cells were treated with 50 μM EGCG and harvested for Western analysis at 30 minutes, 2 hours, 6 hours, and 24 hours. The human keratinocytes were treated when the cell density reached 85-90% confluency (to mimic the epithelium).
In a parallel series of experiments, treatment with EGCG was performed with 30 micrograms per milliliter (μg/ml) cycloheximide added to the keratinocyte media 30 minutes prior to the addition of EGCG. The dose-response experiments were performed using EGCG concentrations at 30, 50 100, and 200 μM in the culture media for 24 hours.
Western blot analysis. Cells from different treatment groups were lysed in RIPA buffer (1% NP-40, 1% sodium deoxycholate, 0.1% SDS, 0.15 M NaCl, 0.01 M sodium phosphate, pH 7.2, and 1% Trasylol) containing proteinase inhibitors (1 mM PMSF, 1 μg/ml each of aprotinin, leupeptin, and pepstatin). The concentration of protein in each sample was determined using the BioRad DC Protein Assay and spectrophotometry. Fifty micrograms (μg) of protein from each sample and a BioRad molecular weight standard marker were run on a 10% SDS-PAGE, followed by transfer to nitrocellulose membranes. Nonspecific binding to membranes was blocked with 10% nonfat milk. Specific primary polyclonal (rabbit) antibody against p57 and a horse radish peroxidase-conjugated goat anti-rabbit secondary antibody were used in conjunction with the ECL Chemiluminescence Kit and membranes were exposed to radiographic films for detection.

A further assay relates to p21/WAF1. The experiment in a line: Apoptosis macroarray, p21/WAF1 mRNA in NHEK. The class given is cell-based, human. As to conditions: 100 μM EGCG. How it is done:
To identify additional factors those suppress EGCG -induced apoptosis and facilitate cell differentiation in NHEK, exponentially growing NHEK (Cambrex, Baltimore, Md.) were exposed to 100 μM EGCG for 0, 2, 6 and 24 hours, prior to total RNA isolation using the Qiagen RNeasy mini kit (Valencia, Calif.), which was followed by RT-PCR labeling and hybridization with the Human Apoptosis Macroarray membrane (Sigma-Genosys, The Woodlands, Tex.). Total cell lysates also were collected following a variety of EGCG treatments. The protein levels for caspase 14 and p21 were determined by immuno-blotting using antibodies specific for caspase 14 and p21 (Santa Cruz Biotechnology, Santa Cruz, Calif.).
Normal human epidermal keratinocytes (NHEK; Cambrex), and oral squamous cell carcinoma (OSC2) cells, originally from gingival tissue, were compared. Exponentially growing cells were exposed to 50 or 100 μM EGCG for 0 hours, 2 hours, 6 hours or 24 hours. Cells were harvested for total RNA, which was examined by apoptosis macroarrays (Sigma Genosys), followed by phosphorimagery and data analysis (GeneSpring). Protein production of expressed genes was confirmed by Western blotting of whole cell lysates.

In the next assay the test system is MCF7 cells. The experiment in a line: Morphological analysis, MCF7 cells. As to conditions: EGCG, 48 hours, vs 24 hour control. The assay is classed as cell-based, human. From the text:
Cell lines and cell culture. The normal human keratinocytes (NHEK CC-2507) were purchased from Cambrex (East Rutherford, N.J.) and maintained in KGM-2 medium (Cambrex). The OSC2 cell line was previously described (Osaki et al., Eur J Cancer B Oral Oncol 1994; 30 B:296-301). The breast carcinoma MCF7 cell line was purchased from American Type Culture Collection. The MCF7(C) caspase+cell line “7-3-28 ” was established and tested as previously described (Janicke et al., J Biol Chem 1998; 273:9357-60, Blanc et al., Cancer Res 2000; 60:4386-90). These tumor cells were maintained in 45% Dulbecco's Modified Eagle's Medium (DMEM), 45% Ham's F12 medium and 10% fetal calf serum, 100 I.U/ml penicillin, 100 μg/ml streptomycin and 5 μg/ml hydrocortisone. All cell cultures were maintained in a 37° C. incubator with 5% CO2. Light microscopic photographs were taken with a SPOT RT digital camera system (Diagnostic Instruments) linked to a Nikon Phase Contrast-2 microscope at an original magnification of 200×.

Consider `O=C(O[C@@H]1Cc2c(O)cc(O)cc2O[C@@H]1c1cc(O)c(O)c(O)c1)c1cc(O)c(O)c(O)c1` [EGCG, (−)-epigallocatechin-3-gallate], for which the “intracellular ROS levels” value with NHEK is “significantly reduced immediately after the addition of EGCG; also recorded: reduce ROS to background levels”. The “increase in caspase 3 activity compared to control” value in the assay with caspase 3 turned out to be 3 fold. For the same compound, the BrdU incorporation result in assay [1] is “slight negative impact on BrdU incorporation”. In the assay on p57 (KIP2) (50 μM EGCG or 0.2 mg/ml GTPPs, 24 h, 40% confluency), the p57 protein accumulation result is reported as “accumulated in normal human epithelial cells”. Moreover, the “EGCG-stimulated p57 protein accumulation when BaP and NNK were present” value in the assay on p57 (KIP2) (50 μM EGCG with 0.12 μM BaP or 10 μM NNK) was “still occurred”. Further, in the assay with p57 (KIP2) (50 μM EGCG, cell density 90%), the “time of peak p57 expression” value was determined as 6 h. For the same compound, the “p57 levels over 24 hours” value with p57 (KIP2) (100 μM or 200 μM EGCG, 90% confluency) is “remained high throughout the 24 hours period”. The “p21 mRNA level, of untreated control” value stood at 70.3% with p21/WAF1 (2 hours) and 50.4% in the assay on p21/WAF1 (6 hours). The “p21 mRNA level, of control” value in the assay on p21/WAF1 (24 hours) is on record as 32.7%. Further, the cell density entry with MCF7 cells is recorded as “increased cell density was observed”.
